# In patent US20240225985A1, “BRIGHTENING COMPOSITIONS AND METHODS OF USE” (Alastin Skincare, Inc., priority 2021, published 2024):
# Ends that are not written are not given here. * marks the point of attachment. Palmitoyl = CCCCCCCCCCCCCCCC(=O)*
# Columns and labels:
# [1] = system: melanocytes; assay: In vitro melanocyte comparative analysis via absorbance readings (melanin production); type: cell-based; settings: for Regulation of melanogenesis (decreased absorption denoting decreased melanin formation): melanocytes, summary of Table 10
# Experimental: Melanocytes were cultured in 6-well plates containing growth media. Once confluent, 2 concentrations of each of the 10 compounds were added to the cells in triplicate wells for 4 days. There were a total of eleven 6-well plates, one for each compound treatment and one for the vehicle control. Absorbance readings were taken on the lysates prepared for each well of the 6-well plates, normalizing for cells counts. The model was initially tested for accuracy and validated using hexapeptide-12 in view of strong gene expression results with melanocyte cell line in the first study—confirmation of decreased stimulation was obtained. Additional validation was carried out using MSH addition to media to confirm increased stimulation of melanin production. The following compounds used in this study are seen in Table 9.
# [2] = system: MITF; assay: In vitro MITF gene expression test in cultured fibroblasts; type: cell-based; settings: 48 hours, 80 ppm Hexapeptide-12, 120 ppm Tripeptide-1 or blend of both, negative = downregulation
# Experimental: Microphthalmia-associated transcription factor (MITF) is a master regulator of pigmentation and melanin transfer and a potential new target for hyperpigmentation and melanoma. In vitro MITF gene expression tests were carried out to ascertain differences between individual peptides (tripeptide-1 and hexapeptide-12) and their combination in terms of MITF downregulation.
# Specifically, the tests were conducted by culturing fibroblasts and then adding tripeptide-1, hexapeptide-12, or a combination of both. After 48 hours, MITF gene expression was analyzed. […] This increased expression continued to manifest and increased even further at the 72 hour time point.
# [3] = system: endothelial cells; assay: Gene expression of PMEL, tyrosinase genes, MC1/4R, EDNRB, MITF, ERK1/2, JNK, AKT1; type: cell-based; settings: after treatment of endothelial cells as printed
# From the text: The methods similar to Examples 3-4 were used to measure expression of PMEL, tyrosinase genes, MC1/4R, EDNRB, MITF, ERK1/2, JNK, and ANKT1.
# FIGS. 10A-10D illustrates the expression of PMEL (FIG. 10A), Tyrosinase genes (FIG. 10B), MC1/4R (FIG. 10C), and EDNRB (FIG. 10D) after treatment of endothelial cells with lactoferrin (Lacto), peptide derived from lactoferrin (TCV), hexapeptide-12 (Hex12), tripeptide-1 and hexapeptide-12 (TriHex), hexapeptide-11 (Hex11), tranexamic acid (Tran acid) octapeptide (Octa), phosphatidylserine (phos), Cannabidiol (CBD), and all (total).
# MITF is regulated by phosphorylation. Specifically, the MAPK and Akt pathways are known to phosphorylate MITF at certain sites. FIGS. 12A-12C illustrate the expression of ERK1/2 (MAPK3/MAPK1) (FIG. 12A), JNK (FIG. 12B), AKT1 (FIG. 12C) after treatment of endothelial cells with lactoferrin (Lacto), peptide derived from lactoferrin (TCV), hexapeptide-12 (Hex12), tripeptide-1 and hexapeptide-12 (TriHex), hexapeptide-11 (Hex11), octapeptide (Octa), phosphatidylserine (phos), Cannabidiol (CBD), and all (total).
# [4] = system: melanocytes; assay: Gene expression study (RNA sequencing) in PGE2-induced melanocytes; type: cell-based, human; settings: melanocytes induced with 10 uM PGE2, 24 hours of compound exposure
# Experimental: Four cell types associated with pigmentation pathways—melanocytes, keratinocytes, fibroblasts and endothelial (HUVEC) cells—were analyzed for gene expression.
# To simulate the UV stimulatory pigmentation pathway process, melanocytes were pre-treated with PGE2, a normal direct consequence of UV light exposure usually emanating from exposed keratinocytes. After the 48 hour attachment culture, these melanocytes were induced with 10 uM PGE2 in melanocyte media for 24 hrs. The four primary human adult dermal cell lines were cultured and plated in well plates in triplicate and then treated with 11 different compound treatments (plus DMSO control). After 48 hours of attachment culture, the remaining fibroblasts, HUVECs and keratinocytes were treated with the test compounds listed in Table 8.
# After 24 hours of compound exposure, RNA lysate preparation was carried out and samples were shipped to MedGenome for RNA extraction, library construction and sequencing to 25M paired end 100 bp reads per sample. Library prep and sequencing was completed at MedGenome.
# [5] = higher concentration (Lactoferrin 1000, HEX-11 200, Phosphatidylserine 500, Silymarin 20, Sesamol 100, Tranexamic Acid 1000, HEX-12 4.9, ug/mL or ug/uL; Phytoene/Phytofluene 5.00%), 4 days, control = 0.0 row
# [6] = lower concentration (Lactoferrin 500, HEX-11 100, Phosphatidylserine 250, Silymarin 10, Sesamol 50, Tranexamic Acid 500, HEX-12 2.9, ug/mL or ug/uL; Phytoene/Phytofluene 2.50%), 4 days, control = 0.0 row
Molecule,"Absorbance 405 nm [1, 5]","Absorbance 490 nm [1, 5]","Absorbance 492 nm [1, 5]","Absorbance 405 nm [1, 6]","Absorbance 490 nm [1, 6]","Absorbance 492 nm [1, 6]",Regulation of melanogenesis (decreased absorption denoting decreased melanin formation) [1],MITF gene expression (down-/upregulation) [2],"melanogenic activity (expression of PMEL, tyrosinase genes, MC1/4R, EDNRB, kinases) [3]","melanogenic activity (expression of PMEL, tyrosinase genes, MC1/4R, EDNRB, kinases) ([3]; listed as hexapeptide-12)",melanogenic gene activity in melanocytes [4],melanogenic gene activity in melanocytes ([4]; listed as hexapeptide-12),"Absorbance 405 nm ([1]; MSH 10 nm media (validation of increased melanin production), control 1.649)","Absorbance 492 nm ([1]; MSH 10 nm media, control 0.501)","Absorbance 490 nm ([1]; MSH 10 nm media, control 0.971)",MITF gene expression (down-/upregulation) ([2]; listed as Tripeptide),MITF gene expression (down-/upregulation) ([2]; listed as tripeptide-1)
"Oc1ccc2c(c1)OCO2 [Sesamol, 3,4-Methylenedioxyphenol]",0.465,0.252,0.183,0.602,0.361,0.24,Regulation of melanogenesis was also observed,–,–,–,–,–,–,–,–,–,–
"NC[C@H]1CC[C@H](C(=O)O)CC1 [Tranexamic Acid, Tranexamic acid]",0.406,0.243,0.176,0.395,0.254,0.187,Regulation of melanogenesis was also observed,–,–,–,–,–,–,–,–,–,–
Hexapeptide-12: hexapeptide-12; VGVAPG per Pal-VGVAPG (SEQ ID NO:25) in b49 (Palmitoyl-VGVAPG),0.96,0.64,0.46,1.32,0.94,0.64,Regulation of melanogenesis was observed,−1.16,significant effects on such melanogenic activity,robust melanogenic activity,particularly dominant in melanogenic activity,significant effects on melanogenesis activity,–,–,–,–,–
"MSH: MSH addition to media to confirm increased stimulation of melanin production (SYSMEHFRWGKPV; ends and bridges not checked; UniProt P01189 138-150, looked up)",–,–,–,–,–,–,–,–,–,–,–,–,1.921,0.573,1.155,–,–
Tripeptide-1,–,–,–,–,–,–,–,–,–,–,–,–,–,–,–,1.72,+1.72
